Laboratory results taken from patent publication US4801588A, “Tetracyclic indole derivatives for treating hypertension” (Farmitalia Carlo Erba S.p.A., priority 1986, dated 1989).

Experiments:
mean blood pressure = experiment: Antihypertensive activity: mean blood pressure (MBP) after oral administration in SHR rats, intraarterial measurement; type: in vivo, rat (SHR); details: single dose, limits P = 0.05, calculated from dose-response regression line; for ED25 and limits (dose lowering mean blood pressure of 25 mmHg): p.o.
Protocol: Intrarterial measurements of mean blood pressure (MBP) were performed through catheters (PE 50, Clay Adams) implanted in the rat (SHR) right carotid artery under alothane anesthesia. Twenty four hours after surgery, the animals were placed in Ballman cages and the arterial cannula was connected via a pressure transducer to a Beckman blood pressure recorder for continuous monitoring of mean blood pressure.
MBP was recorded before the oral administration (basal values) and 15-30-60-120-240 minutes till 24 hours after treatment. Groups of 7-8 rats were orally treated with a single dose of the test compound or vehicle, methocel 0.5% w/v (0.2 ml/100 g b.w.). The ED25 was calculated for each compound from the dose-response regression line.
As reference standard drug, captopril was also tested.

male mice = experiment: Orientative toxicity after oral treatment in male mice, seven days observation; type: in vivo; details: p.o., observed for seven days, 10080 min
Excerpt: (§1) Three male mice for each group were orally treated with drugs at different dose levels for the determination of orientative toxicity.

[1] = as above; type: in vivo; details: mouse, in vivo, po, observed for seven days
Excerpt: as §1

## 1-[[5-(10→9)abeo-9,10-didehydro-6-methylergolin-8β-yl]methyl]- 2,4-(1H,3H)-pyrimidinedione [FCE 24379]
Mean blood pressure
  ED25 and limits (dose lowering mean blood pressure of 25 mmHg): 1.229 (0.661-1.845) mg.kg^-1
Male mice
  LD50: > 800 mg/kg

## 1-[[5-(10→9)abeo-9,10-didehydro-6-methylergolin-8β-yl]methyl]- 2,4-(1H,3H)-pyrimidinedione-N6 -oxide [FCE 24778]
Mean blood pressure
  ED25 and limits (dose lowering mean blood pressure of 25 mmHg): 0.402 (0.297-0.511) mg.kg^-1
Male mice
  LD50: > 800 mg/kg

## C[C@H](CS)C(=O)N1CCC[C@H]1C(=O)O [Captopril, captopril, reference compound]
Mean blood pressure; Rattus norvegicus, po, read-out: ED25 and limits (dose lowering mean blood pressure of 25 mmHg)
  ED (25 mmHg): 13.7 mg/kg
[1]
  LD50 at 168 h: > 800 mg/kg

## CN1C[C@H](CN2CC(=O)NC2=O)C2=Cc3cccc4[nH]cc(c34)C[C@H]21 [FCE 24378, 1-[[5(10→9)abeo-9,10-didehydro-6-methylergolin-8β-yl]methyl]-2,4-imidazolidinedione]
Mean blood pressure
  ED25 and limits (dose lowering mean blood pressure of 25 mmHg): 2.051 (1.180-2.971) mg.kg^-1
Male mice
  LD50: > 800 mg/kg

## C[N+]1([O-])C[C@H](CN2CC(=O)NC2=O)C2=Cc3cccc4[nH]cc(c34)C[C@H]21 (stereo partly drawn) [FCE 25068, 1-[[5(10→9)abeo-9,10-didehydro-6-methylergolin-8β-yl]methyl]-2,4-imidazolidinedione-N6-oxide]
Mean blood pressure
  ED25 and limits (dose lowering mean blood pressure of 25 mmHg): 4.272 (3.256-5.514) mg.kg^-1
Male mice
  LD50: > 800 mg/kg
